Test results reported in US20060111305A1, “Metabolites of certain [1,4]diazepino[6,7,1-ij]quinoline derivatives and methods of preparation and use thereof” (Wyeth, priority 2004, published 2006).
Read-outs that look alike come from different tables or passages of the source.

Assay: Rat brain radioactivity content and metabolite profiles after single oral 5 mg/kg [14C]DCDQ
Assay type: in vivo, Sprague-Dawley rats
Protocol: At sacrifice, blood samples were collected by cardiac puncture into tubes containing EDTA as the anticoagulant and placing them on ice. Aliquots of 50 μL were removed for combustion and determination of radioactivity content. Plasma was immediately obtained from the remaining blood by centrifugation at 4° C. Brains were excised after perfusion with 50 mL of chilled sterile saline. Urine samples were collected on dry ice at intervals of 0-8 and 8-24 hour post-dosing. Feces were collected at intervals of 0-8 and 8-24 hr post-dosing at room temperature and were homogenized as described previously. The biological specimens and aliquots of the dosing solution at pre- and post-dose were stored at approximately −70° C. until analyzed.
Brain and fecal samples were weighed and homogenized in water at volume-to-weight ratios of about 1:1 and 5:1, respectively. Blood aliquots (50 μL), brain homogenates (0.1 gram) and fecal homogenates (0.2 gram) were placed on Combusto-cones with Combusto-pads and combusted. A model 307 Tri-Carb Sample Oxidizer, equipped with an Oximate-80 Robotic Automatic Sampler (Perkin Elmer), was used for combustion. The liberated ^14CO2 was trapped with Carbo-Sorb E carbon dioxide absorber, mixed with PermaFluor® E+ liquid scintillation cocktail, and counted in a Tri-Carb Model 3100 TR/LL liquid scintillation counter (Perkin Elmer). The oxidation efficiency of the oxidizer was 98.2%.
Brain homogenates were analyzed for metabolite profiles. Aliquots of 1 gram of brain homogenates were mixed with an equal volume of methanol, placed on ice for about 10 minutes and centrifuged. The supernatant was transferred to a clean tube. The residue was extracted three times with 1 mL methanol. The supernatants of each sample were combined, evaporated to about 0.5 mL, and centrifuged. Extraction efficiency was determined by analyzing aliquots of 10 μL of the supernatant for radioactivity. An aliquot (100-200 μL) of the supernatant was analyzed by HPLC with radioactivity flow detection for profiling. Samples were also analyzed by LC/MS to characterize the radioactive peaks.
A Waters model 2690 HPLC system (Waters Corp., Milford, Mass.) with a built-in autosampler was used for analysis. Separations were accomplished on a Phenomenex Luna C18(2) column (150×2.0 mm, 5 μm) (Phenomenex, Torrance, Calif.). The sample chamber of the autosampler was maintained at 4° C., while the column was at ambient temperature of about 20° C. A variable wavelength UV detector set to monitor 250 nm and a Flo-One β Model A525 radioactivity detector described above were used for data acquisition. The HPLC mobile phase consisted of 10 mM ammonium acetate, pH 4.5 (A) and methanol (B), and was delivered at 0.2 mL/min. Chromatographic condition A was used for dose analysis, while condition B was used for analysis of urine and plasma, brain and fecal extracts.

For `c1cc2c3c(c1)[C@H]1CCC[C@H]1CN3CCNC2` [[^14C]DCDQ], which “Brain concentration of radioactivity, Total” value (shortened to “Brain concentration”) (female rats, 2 hr, mean ± S.D., N = 3) is on record?
The value was 6.38 ± 2.22 μg equivalents/g.

And the “Brain concentration” value (female rats, 8 hr, mean ± S.D., N = 3)?
The value was 2.85 ± 0.68 μg equivalents/g.

What about the “Brain concentration” value (male rats, 2 hr, mean ± S.D., N = 3) of the same compound?
The value was 5.12 ± 1.28 μg equivalents/g.

And the “Brain concentration” value (male rats, 4 hr, mean ± S.D., N = 3)?
The value was 4.94 ± 0.44 μg equivalents/g.

What about the “Brain concentration” value (male rats, 8 hr, mean ± S.D., N = 3) of the same compound?
The value was 3.25 ± 0.99 μg equivalents/g.

What about the Brain radioactivity concentration (male rats, 24 hour post-dose) of the same compound?
Its Brain radioactivity concentration is 0.037 ± 0.002 µg equivalents/g tissue.

What about the “Brain concentration” value (male rats, 24 hr, mean ± S.D., N = 3) of the same compound?
Its value is 0.04 ± 0.00 μg equivalents/g.

For `c1cc2c3c(c1)[C@H]1CCC[C@H]1CN3CCNC2` [DCDQ, (9aR,12aS)-4,5,6,7,9,9a,10,11,12,12a-decahydro-cyclopenta[c][1,4]diazepine[6,7,1-ij]quinoline, reference compound], which Kp at 2 h (Sprague-Dawley, rat, brain and plasma, oral, 5 mg/kg, male rats, 2 hr, read-out: Brain/Plasma Ratio, DCDQ) is on record?
The Kp at 2 h was 56.4 ± 11.5.

And the Kp at 4 h (Sprague-Dawley, rat, brain and plasma, oral, 5 mg/kg, male rats, 4 hr, read-out: Brain/Plasma Ratio, DCDQ)?
Its Kp at 4 h is 50.5 ± 8.88.

What about the concentration at 2 h (Sprague-Dawley, rat, brain, oral, 5 mg/kg, female rats, 2 hr, mean ± S.D., N = 3, read-out: Brain concentration, DCDQ (estimated)) of the same compound?
The concentration at 2 h was 6080 ± 2170 ng/g.

And the concentration at 8 h (Sprague-Dawley, rat, brain, oral, 5 mg/kg, female rats, 8 hr, mean ± S.D., N = 3, read-out: Brain concentration, DCDQ (estimated))?
Its concentration at 8 h is 2680 ± 660 ng/g.

What about the concentration at 2 h (Sprague-Dawley, rat, brain, oral, 5 mg/kg, male rats, 2 hr, mean ± S.D., N = 3, read-out: Brain concentration, DCDQ (estimated)) of the same compound?
Its concentration at 2 h is 4630 ± 1180 ng/g.

What about the concentration at 4 h (Sprague-Dawley, rat, brain, oral, 5 mg/kg, male rats, 4 hr, mean ± S.D., N = 3, read-out: Brain concentration, DCDQ (estimated)) of the same compound?
Its concentration at 4 h is 4470 ± 420 ng/g.

And the concentration at 8 h (Sprague-Dawley, rat, brain, oral, 5 mg/kg, male rats, 8 hr, mean ± S.D., N = 3, read-out: Brain concentration, DCDQ (estimated))?
The concentration at 8 h was 2930 ± 930 ng/g.

And the Kp at 2 h (Sprague-Dawley, rat, brain/plasma, oral, 5 mg/kg, female rats, 2 hr, read-out: Brain/Plasma Ratio, DCDQ)?
The Kp at 2 h was 49.9 ± 14.3.

What about the Kp at 8 h (Sprague-Dawley, rat, brain/plasma, oral, 5 mg/kg, female rats, 8 hr, read-out: Brain/Plasma Ratio, DCDQ) of the same compound?
Its Kp at 8 h is 56.1 ± 17.8.

What about the Kp at 8 h (Sprague-Dawley, rat, brain/plasma, oral, 5 mg/kg, male rats, 8 hr, read-out: Brain/Plasma Ratio, DCDQ) of the same compound?
The Kp at 8 h was 50.5 ± 11.4.

And the Kp (both sexes, Sprague-Dawley, rat, brain, oral, 5 mg/kg, independent of time or sex, 2 to 8 hour post-dose, read-out: average brain-to-plasma DCDQ ratio)?
The Kp was 49.9 to 56.1.

What about the “% DCDQ of Brain Radioactivity” value (female rats, 2 hr) of the same compound?
Its value is 95.2 ± 1.0%.

And the “% DCDQ of Brain Radioactivity” value (female rats, 8 hr)?
The value was 94.1 ± 0.7%.

And the “% DCDQ of Brain Radioactivity” value (male rats, 2 hr)?
The value was 90.4 ± 0.9%.

And the “% DCDQ of Brain Radioactivity” value (male rats, 4 hr)?
The value was 90.4 ± 0.5%.

What about the “% DCDQ of Brain Radioactivity” value (male rats, 8 hr) of the same compound?
Its value is 90.0 ± 1.2%.
